Test results as given in patent publication US20100087650A1, “(1R,1'R)-ATRACURIUM SALTS SEPARATION PROCESS” (CHEMAGIS LTD., priority 2007, published 2010).

What was measured:
[1] = Stability of (1R,1′R)-atracurium besylate solution in different buffers at room temperature (HPLC, USP procedure); format: physicochemical; conditions: for % of cisatracurium besylate after 24 hours / % of cisatracurium besylate at T = 0: 90% buffer/10% methanol
Protocol: (§1) The stability of the (1R,1′R)-atracurium besylate solution at room temperature for time periods of up to 24 hours was checked using different types of buffers (varying by the nature of the cation and the anion). The diluent was a mixture of 90% buffer and 10% methanol. The Cation concentration in each buffer was 20 mM. The HPLC conditions were according to the USP procedure. The results are depicted in Tables 11 and 12. The degradation (D), according to the data presented in Table 11, was calculated as follows: [formula] wherein, X0=% of cisatracurium at T0, and X24=% of cisatracurium at after 24 hours.

[2] = more potent than atracurium besylate itself; cited from earlier work
[3] = Stability of (1R,1′R)-atracurium besylate sample solution at pH 1.0 and 2.0 (nitrate buffer) at room temperature and 4° C.; format: physicochemical
Protocol: A sample solution of (1R,1′R)-atracurium besylate (10 mg/ml) was prepared using two buffer solutions at pH values of 1.0 and 2.0 and analyzed on the C18 stationary phase by gradient elution [20 mM KNO3 buffer (at pH corresponding to sample preparation)—methanol]. […] [formula] wherein, X0=% of cisatracurium at T0, and X6/26=% of cisatracurium at after 6 or 26 hours.

[4] = Stability of (1R,1′R)-atracurium besylate at different pH values in Na+CH3COO−/CH3COOH buffer; format: physicochemical; conditions: T0 to 21.0 hours
[5] = as above; format: physicochemical; conditions: for % degradation: T0 to 21.0 hours
Protocol: as §1, with “12. […]” for “12.”, “(D)” for “(D),”, “12” for “11,”, “X21=%” for “X24=%”

[6] = CaBr2/HBr buffer pH 3.5, 20 mM cation
[7] = K+H2PO4 buffer pH 3.0, 20 mM cation
[8] = NH4+CH3COO−/CH3COOH buffer pH 3.5, 20 mM cation
[9] = NH4+CH3COO−/HCOOH buffer pH 3.5, 20 mM cation
[10] = Na+CH3COO−/CH3COOH buffer pH 3.5, 20 mM cation
[11] = Na+NO3−/HNO3 buffer pH 3.0, 20 mM cation
[12] = diethylamine/CH3COOH buffer pH 3.5, 20 mM cation
[13] = triethylamine/CH3COOH buffer pH 3.5, 20 mM cation
[14] = pH = 1, room temperature, 6 hours
[15] = pH = 1, room temperature, 26 hours
[16] = pH = 2, room temperature, 6 hours

% of cisatracurium besylate after 24 hours [1, 6]: 54.4%
% of cisatracurium besylate at T = 0 [1, 6]: 54.4%
% degradation ([1]; CaBr2/HBr buffer pH 3.5, 24 hours): 0%
% of cisatracurium besylate after 24 hours [1, 7]: 53.7%
% of cisatracurium besylate at T = 0 [1, 7]: 54.7%
% degradation ([1]; K+H2PO4 buffer pH 3.0, 24 hours): 1.8%
% of cisatracurium besylate after 24 hours [1, 8]: 52.9%
% of cisatracurium besylate at T = 0 [1, 8]: 54.7%
% degradation ([1]; NH4+CH3COO−/CH3COOH buffer pH 3.5, 24 hours): 3.3%
% of cisatracurium besylate after 24 hours [1, 9]: 54.3%
% of cisatracurium besylate at T = 0 [1, 9]: 54.6%
% degradation ([1]; NH4+CH3COO−/HCOOH buffer pH 3.5, 24 hours): 0.5%
% of cisatracurium besylate after 24 hours [1, 10]: 52.5%
% of cisatracurium besylate at T = 0 [1, 10]: 54.5%
% degradation ([1]; Na+CH3COO−/CH3COOH buffer pH 3.5, 24 hours): 3.7%
% of cisatracurium besylate after 24 hours [1, 11]: 54.5%
% of cisatracurium besylate at T = 0 [1, 11]: 54.5%
% degradation ([1]; Na+NO3−/HNO3 buffer pH 3.0, 24 hours): 0%
% of cisatracurium besylate after 24 hours [1, 12]: 53.2%
% of cisatracurium besylate at T = 0 [1, 12]: 54.7%
% degradation ([1]; diethylamine/CH3COOH buffer pH 3.5, 24 hours): 2.7%
% of cisatracurium besylate after 24 hours [1, 13]: 52.1%
% of cisatracurium besylate at T = 0 [1, 13]: 54.4%
% degradation ([1]; triethylamine/CH3COOH buffer pH 3.5, 24 hours): 4.2%
% area of the cis-cis isomer ([3]; pH = 1, 4° C., 0 hours): 54.9%
% area of the cis-cis isomer ([3]; pH = 1, 4° C., 6 hours): 53.9%
D, % (degradation) ([3]; pH = 1, 4° C., 6 hours): 1.8%
% area of the cis-cis isomer ([3]; pH = 1, 4° C., 26 hours): 52.8%
D, % (degradation) ([3]; pH = 1, 4° C., 26 hours): 3.8%
% area of the cis-cis isomer ([3]; pH = 1, room temperature, 0 hours): 54.9%
% area of the cis-cis isomer [3, 14]: 50.2%
D, % (degradation) [3, 14]: 8.6%
% area of the cis-cis isomer [3, 15]: 38.8%
D, % (degradation) [3, 15]: 29.3%
% area of the cis-cis isomer ([3]; pH = 2, 4° C., 0 hours): 54.8%
% area of the cis-cis isomer ([3]; pH = 2, 4° C., 6 hours): 54.8%
D, % (degradation) ([3]; pH = 2, 4° C., 6 hours): 0%
% area of the cis-cis isomer ([3]; pH = 2, 4° C., 26 hours): 54.7%
D, % (degradation) ([3]; pH = 2, 4° C., 26 hours, nitrate buffer): 0.2%
% area of the cis-cis isomer ([3]; pH = 2, room temperature, 0 hours): 54.8%
% area of the cis-cis isomer [3, 16]: 54.5%
D, % (degradation) [3, 16]: 0.5%
% area of the cis-cis isomer ([3]; pH = 2, room temperature, 26 hours): 53.8%
D, % (degradation) ([3]; pH = 2, room temperature, 26 hours, nitrate buffer): less than 2%
D, % (degradation) ([3]; pH = 2, room temperature, 26 hours, nitrate buffer, listed as cis-cis isomer): 1.8%
stability under the separation conditions ([3]; separation conditions of the invention (mildly acidic or buffered aqueous mobile phase)): substantially stable
% degradation ([4]; pH 3.0, Na+CH3COO−/CH3COOH buffer): 6.4%
% degradation ([4]; pH 4.0, Na+CH3COO−/CH3COOH buffer): 10.3%
% degradation ([4]; pH 5.0, Na+CH3COO−/CH3COOH buffer): 28.4%
% degradation ([4]; pH 5.5, Na+CH3COO−/CH3COOH buffer): 48.1%
% of cisatracurium besylate ([5]; pH 3.0, Na+CH3COO−/CH3COOH buffer, 0.0 hours): 53.4%
% of cisatracurium besylate ([5]; pH 3.0, Na+CH3COO−/CH3COOH buffer, 10.0 hours): 51.3%
% of cisatracurium besylate ([5]; pH 3.0, Na+CH3COO−/CH3COOH buffer, 21.0 hours): 50.0%
change of % area of the 1R-cis,1′R-cis isomer (FIG. 7) ([5]; pH 3, after 20 hours): only slightly reduced
% of cisatracurium besylate ([5]; pH 3.5, Na+CH3COO−/CH3COOH buffer, 0.0 hours): 53.6%
% of cisatracurium besylate ([5]; pH 3.5, Na+CH3COO−/CH3COOH buffer, 10.0 hours): 51.0%
% of cisatracurium besylate ([5]; pH 3.5, Na+CH3COO−/CH3COOH buffer, 21.0 hours): 49.2%
% degradation ([5]; pH 3.5, Na+CH3COO−/CH3COOH buffer): 8.2%
% of cisatracurium besylate ([5]; pH 4.0, Na+CH3COO−/CH3COOH buffer, 0.0 hours): 53.4%
% of cisatracurium besylate ([5]; pH 4.0, Na+CH3COO−/CH3COOH buffer, 10.0 hours): 50.5%
% of cisatracurium besylate ([5]; pH 4.0, Na+CH3COO−/CH3COOH buffer, 21.0 hours): 47.9%
% of cisatracurium besylate ([5]; pH 4.5, Na+CH3COO−/CH3COOH buffer, 0.0 hours): 53.9%
% of cisatracurium besylate ([5]; pH 4.5, Na+CH3COO−/CH3COOH buffer, 10.0 hours): 49.9%
% of cisatracurium besylate ([5]; pH 4.5, Na+CH3COO−/CH3COOH buffer, 21.0 hours): 46.2%
% degradation ([5]; pH 4.5, Na+CH3COO−/CH3COOH buffer): 14.3%
% of cisatracurium besylate ([5]; pH 5.0, Na+CH3COO−/CH3COOH buffer, 0.0 hours): 53.6%
% of cisatracurium besylate ([5]; pH 5.0, Na+CH3COO−/CH3COOH buffer, 10.0 hours): 46.1%
% of cisatracurium besylate ([5]; pH 5.0, Na+CH3COO−/CH3COOH buffer, 21.0 hours): 38.4%
% of cisatracurium besylate ([5]; pH 5.5, Na+CH3COO−/CH3COOH buffer, 0.0 hours): 53.6%
% of cisatracurium besylate ([5]; pH 5.5, Na+CH3COO−/CH3COOH buffer, 10.0 hours): 40.8%
% of cisatracurium besylate ([5]; pH 5.5, Na+CH3COO−/CH3COOH buffer, 21.0 hours): 27.8%
change of % area of the 1R-cis,1′R-cis isomer (FIG. 7) ([5]; pH 5.5, after 20 hours): significantly reduced
Structure (SMILES): COc1ccc(C[C@@H]2c3cc(OC)c(OC)cc3CC[N@+]2(C)CCC(=O)OCCCCCOC(=O)CC[N@@+]2(C)CCc3cc(OC)c(OC)cc3[C@H]2Cc2ccc(OC)c(OC)c2)cc1OC [cisatracurium besylate, 1R-cis-1′R-cis-2,2′2,2′-[1,5-pentanediylbis[oxy(3-oxo-3,1-propanediyl)]]bis[1-[(3,4-dimethoxyphenyl)methyl]-1,2,3,4-tetrahydro-6,7-dimethoxy-2-methyl-isoquinolinium dibenzenesulfonate]
potency relative to atracurium besylate [2]: 3-4 times
